From ChEMBL document CHEMBL4177726, “Synthesis and anti-influenza virus evaluation of triterpene-sialic acid conjugates” (Bioorg Med Chem, 2018)

Columns and labels:
[1] = target: Neuraminidase (Influenza A virus (A/Puerto Rico/8/1934(H1N1))) (UniProt P03468); experiment: Inhibition of Influenza A virus A/PR/8/34(H1N1) sialidase at 3.33 x 10^-4M preincubated for 15 mins followed by MUNA substrate addition measured after 15 mins by fluorescence assay relative to control
[2] = Inhibition of Influenza A virus A/Duck/313/4/78(H5N3) sialidase at 3.33 x 10^-4M preincubated for 15 mins followed by MUNA substrate addition measured after 15 mins by fluorescence assay relative to control
[3] = target: Neuraminidase (Influenza A virus (A/Memphis/1/1971(H3N2))) (UniProt P03471); experiment: Inhibition of Influenza A virus A/Memphis/1/71(H3N2) sialidase at 3.33 x 10^-4M preincubated for 15 mins followed by MUNA substrate addition measured after 15 mins by fluorescence assay relative to control
MDCK = experiment: Cytotoxicity against MDCK cells assessed as reduction in cell viability at 1 x 10^-5 M after 24 hrs by CCK8 assay; assay type: cell-based, Canis lupus familiaris; conditions: dog, 10 µM
Influenza A virus [4] = experiment: Antiviral activity against Influenza A virus A/PR/8/34(H1N1) infected in MDCK cells assessed as reduction in viral yield at 1 x 10^-5 M preincubated with virus for 1 hr followed by viral infection measured after 18 hrs by beta-galactosidase based fluorescence assay; assay type: functional, organism-based; conditions: A/Puerto Rico/8/1934(H1N1)
Influenza A virus [5] = experiment: Antiviral activity against Influenza A virus A/PR/8/34(H1N1) infected in MDCK cells assessed as viral yield at 1 x 10^-5 M preincubated with virus for 1 hr followed by viral infection measured after 18 hrs by beta-galactosidase based fluorescence assay (reference value: 100%); assay type: functional, A/Puerto Rico/8/1934(H1N1)

Neuraminidase (Influenza A virus (A/Puerto Rico/8/1934(H1N1))), sequence (P03468 whole entry): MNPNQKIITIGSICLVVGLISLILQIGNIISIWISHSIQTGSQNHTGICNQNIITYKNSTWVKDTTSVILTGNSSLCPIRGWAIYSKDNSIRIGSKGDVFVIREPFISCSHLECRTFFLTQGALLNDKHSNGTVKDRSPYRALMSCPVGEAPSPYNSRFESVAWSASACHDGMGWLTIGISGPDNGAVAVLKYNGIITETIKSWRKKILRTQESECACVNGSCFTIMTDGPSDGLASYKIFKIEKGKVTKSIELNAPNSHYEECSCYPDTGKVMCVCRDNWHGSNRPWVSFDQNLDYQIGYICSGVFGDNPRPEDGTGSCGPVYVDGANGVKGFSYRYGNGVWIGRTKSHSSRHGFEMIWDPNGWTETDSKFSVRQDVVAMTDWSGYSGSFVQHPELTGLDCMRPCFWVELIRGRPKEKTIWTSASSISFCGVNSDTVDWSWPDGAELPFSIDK
Neuraminidase (Influenza A virus (A/Memphis/1/1971(H3N2))), sequence (P03471 whole entry): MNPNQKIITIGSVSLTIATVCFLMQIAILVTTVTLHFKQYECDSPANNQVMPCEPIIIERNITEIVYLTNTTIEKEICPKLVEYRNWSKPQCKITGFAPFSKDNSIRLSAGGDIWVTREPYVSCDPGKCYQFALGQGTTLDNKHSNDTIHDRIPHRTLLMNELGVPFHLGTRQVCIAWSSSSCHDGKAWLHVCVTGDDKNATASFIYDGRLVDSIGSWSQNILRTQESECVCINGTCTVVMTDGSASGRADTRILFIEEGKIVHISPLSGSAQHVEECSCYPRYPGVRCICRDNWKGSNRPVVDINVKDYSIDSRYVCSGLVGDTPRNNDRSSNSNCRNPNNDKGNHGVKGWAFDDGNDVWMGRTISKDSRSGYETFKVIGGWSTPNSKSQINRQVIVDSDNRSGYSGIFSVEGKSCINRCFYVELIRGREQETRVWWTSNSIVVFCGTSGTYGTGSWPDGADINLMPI

Compound	inhibition [1] [%]	inhibition [2] [%]	inhibition [3] [%]	Activity (MDCK)	Activity (Influenza A virus [4])	Activity (Influenza A virus [5]) [%]
CC(=O)N[C@H]1[C@H]([C@H](O)[C@H](O)CO)O[C@](O[C@H]2CC[C@]3(C)[C@H]4C(=O)C=C5[C@@H]6C[C@@](C)(CO)CC[C@]6(C)CC[C@@]5(C)[C@]4(C)CC[C@H]3C2(C)C)(C(=O)O)C[C@@H]1O	35.8	43.8	40.3			
CC(=O)N[C@H]1[C@H]([C@H](O)[C@H](O)CO)O[C@](O[C@H]2CC[C@]3(C)[C@H]4C(=O)C=C5[C@@H]6C[C@@](C)(C(=O)O)CC[C@]6(C)CC[C@@]5(C)[C@]4(C)CC[C@H]3C2(C)C)(C(=O)O)C[C@@H]1O	21.1	25.8	23.4			
CC(=O)N[C@H]1[C@H]([C@H](O)[C@H](O)CO)O[C@@](O[C@H]2CC[C@]3(C)[C@H]4C(=O)C=C5[C@@H]6C[C@@](C)(CO)CC[C@]6(C)CC[C@@]5(C)[C@]4(C)CC[C@H]3C2(C)C)(C(=O)O)C[C@@H]1O	50.3	25.3	30.3			
CC(=O)N[C@H]1[C@H]([C@H](O)[C@H](O)CO)O[C@](O[C@H]2CC[C@]3(C)[C@H]4CC=C5[C@@H]6CC(C)(C)CC[C@]6(C(=O)O)CC[C@@]5(C)[C@]4(C)CC[C@H]3C2(C)C)(C(=O)O)C[C@@H]1O	33.2	34.6	26.5			
CC(=O)N[C@H]1[C@H]([C@H](O)[C@H](O)CO)O[C@@](O[C@H]2CC[C@]3(C)[C@H]4C(=O)C=C5[C@@H]6C[C@@](C)(C(=O)O)CC[C@]6(C)CC[C@@]5(C)[C@]4(C)CC[C@H]3C2(C)C)(C(=O)O)C[C@@H]1O	50.1	16.4	27.4			
CC(=O)N[C@H]1[C@H]([C@H](O)[C@H](O)CO)O[C@](O[C@H]2CC[C@]3(C)[C@H]4CC=C5[C@@H]6C[C@@](C)(CO)CC[C@]6(C)CC[C@@]5(C)[C@]4(C)CC[C@H]3C2(C)C)(C(=O)O)C[C@@H]1O	76.7	55.7	68.7	Non-Toxic	Dose-dependent effect	72.6
CC(=O)N[C@H]1[C@H]([C@H](O)[C@H](O)CO)O[C@@](O[C@H]2CC[C@]3(C)[C@H]4CC=C5[C@@H]6C[C@@](C)(CO)CC[C@]6(C)CC[C@@]5(C)[C@]4(C)CC[C@H]3C2(C)C)(C(=O)O)C[C@@H]1O	71	57.6	45	Non-Toxic		88
COC(=O)[C@]12CCC(C)(C)C[C@H]1C1=CC[C@@H]3[C@@]4(C)CC[C@H](O[C@@]5(C(=O)O)C[C@H](O)[C@@H](NC(C)=O)[C@H]([C@H](O)[C@H](O)CO)O5)C(C)(C)[C@@H]4CC[C@@]3(C)[C@]1(C)CC2	89.9	70.7	64.9	Non-Toxic	Dose-dependent effect	46.7
COC(=O)[C@]12CCC(C)(C)C[C@H]1C1=CC[C@@H]3[C@@]4(C)CC[C@H](O[C@]5(C(=O)O)C[C@H](O)[C@@H](NC(C)=O)[C@H]([C@H](O)[C@H](O)CO)O5)C(C)(C)[C@@H]4CC[C@@]3(C)[C@]1(C)CC2	74.9	65.7	70.7	Non-Toxic		39.4
COC(=O)[C@@]1(C)CC[C@]2(C)CC[C@]3(C)C(=CC(=O)[C@@H]4[C@@]5(C)CC[C@H](O[C@]6(C(=O)O)C[C@H](O)[C@@H](NC(C)=O)[C@H]([C@H](O)[C@H](O)CO)O6)C(C)(C)[C@@H]5CC[C@]43C)[C@@H]2C1	52.2	27.5	39.9			
COC(=O)[C@@]1(C)CC[C@]2(C)CC[C@]3(C)C(=CC(=O)[C@@H]4[C@@]5(C)CC[C@H](O[C@@]6(C(=O)O)C[C@H](O)[C@@H](NC(C)=O)[C@H]([C@H](O)[C@H](O)CO)O6)C(C)(C)[C@@H]5CC[C@]43C)[C@@H]2C1	35.4	46.2	44.8			
